Source: patent US7795261B2, “Substituted 1-piperidin-4-yl-4-pyrrolidin-3-yl-piperazine derivatives and their use as neurokinin antagonists” (Janssen Pharmaceutica NV, priority 2002, dated 2010)

Columns and labels:
Type in all cases: cell-based
[1] = target: NK1 (Homo sapiens, UniProt P25103); assay: Signal transduction (ST), intracellular Ca++ (FLIPR), NK1 antagonistic activity; conditions: read-out: pIC50 NK1 (converted)
In short: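 Confluent cells loaded with 2 μM Fluo3 (1 h, 37 °C, probenecid), preincubated 20 min at RT with antagonist concentration range, then agonist added. Peak Ca++ transient read by FLIPR in Krebs buffer pH 7.4; IC50 by non-linear regression.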

[2] = target: T1, NK2 (Homo sapiens, UniProt P21452); assay: Signal transduction (ST), intracellular Ca++ (FLIPR), NK2; conditions: read-out: pIC50 NK2 (converted)
T1 sequence (P21452 1-398): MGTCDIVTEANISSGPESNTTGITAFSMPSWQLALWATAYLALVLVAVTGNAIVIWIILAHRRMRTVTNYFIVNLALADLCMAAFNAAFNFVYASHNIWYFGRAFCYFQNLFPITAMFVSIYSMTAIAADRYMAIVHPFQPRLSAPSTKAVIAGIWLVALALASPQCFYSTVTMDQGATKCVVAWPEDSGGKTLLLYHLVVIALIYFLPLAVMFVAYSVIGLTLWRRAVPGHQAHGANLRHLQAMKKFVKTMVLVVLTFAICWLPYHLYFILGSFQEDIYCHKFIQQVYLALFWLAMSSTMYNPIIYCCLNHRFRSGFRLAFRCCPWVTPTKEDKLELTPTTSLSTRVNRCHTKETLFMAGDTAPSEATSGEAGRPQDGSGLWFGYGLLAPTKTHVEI

[3] = target: T2, NK3 (Homo sapiens, UniProt P29371); assay: Signal transduction (ST), intracellular Ca++ (FLIPR), NK3; conditions: read-out: pIC50 NK3 (converted)
T2 sequence (P29371 1-465): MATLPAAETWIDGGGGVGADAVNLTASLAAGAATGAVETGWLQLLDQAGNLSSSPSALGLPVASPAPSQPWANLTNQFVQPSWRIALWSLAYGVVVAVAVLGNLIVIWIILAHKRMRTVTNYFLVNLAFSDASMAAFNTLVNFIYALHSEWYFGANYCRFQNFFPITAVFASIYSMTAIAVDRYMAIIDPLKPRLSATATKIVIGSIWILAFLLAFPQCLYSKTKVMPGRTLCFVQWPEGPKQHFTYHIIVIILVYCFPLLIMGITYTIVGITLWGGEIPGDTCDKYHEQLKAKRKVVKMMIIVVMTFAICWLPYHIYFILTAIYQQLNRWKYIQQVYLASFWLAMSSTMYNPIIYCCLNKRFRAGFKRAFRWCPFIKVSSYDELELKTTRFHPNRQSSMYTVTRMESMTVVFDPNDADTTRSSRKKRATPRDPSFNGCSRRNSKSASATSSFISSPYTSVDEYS

Chain of NK1 (P25103 whole entry): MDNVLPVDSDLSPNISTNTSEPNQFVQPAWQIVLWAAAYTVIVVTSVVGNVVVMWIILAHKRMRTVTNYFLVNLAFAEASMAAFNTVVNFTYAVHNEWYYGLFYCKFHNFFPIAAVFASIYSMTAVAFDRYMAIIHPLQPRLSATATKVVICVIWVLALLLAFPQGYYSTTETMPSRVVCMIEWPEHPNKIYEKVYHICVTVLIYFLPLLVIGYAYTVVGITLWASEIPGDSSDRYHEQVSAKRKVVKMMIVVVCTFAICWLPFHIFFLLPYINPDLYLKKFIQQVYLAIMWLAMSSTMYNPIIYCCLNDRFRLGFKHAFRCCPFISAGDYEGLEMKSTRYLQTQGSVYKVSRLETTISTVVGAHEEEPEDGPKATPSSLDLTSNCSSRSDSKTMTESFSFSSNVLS

| SMILES | IC50 [1] | IC50 [2] | IC50 [3] |
| --- | --- | --- | --- |
| O=C(c1c(Cl)cccc1Cl)N1CC[C@H](N2CCN([C@H]3CCN(C(=O)c4cc(C(F)(F)F)cc(C(F)(F)F)c4)[C@H](Cc4ccc(Cl)c(Cl)c4)C3)CC2)C1 [Compound 316] | 20 nM | 794 nM | 631 nM |
| O=C(c1ccco1)N1CC[C@H](N2CCN([C@H]3CCN(C(=O)c4cc(C(F)(F)F)cc(C(F)(F)F)c4)[C@H](Cc4ccc(Cl)c(Cl)c4)C3)CC2)C1 [Compound 317] | 10 nM | 398 nM | 631 nM |
| O=C(c1cccs1)N1CC[C@H](N2CCN([C@H]3CCN(C(=O)c4cc(C(F)(F)F)cc(C(F)(F)F)c4)[C@H](Cc4ccc(Cl)c(Cl)c4)C3)CC2)C1 [Compound 318] | 15.8 nM | 316 nM | 398 nM |
| O=C(c1cc(C(F)(F)F)cc(C(F)(F)F)c1)N1CCC(N2CCN(C3CCN(Cc4ccccc4)C3)CC2)CC1Cc1cc(Cl)cc(Cl)c1 (stereo not drawn) [Compound 320] | 251 nM | 3980 nM | 2510 nM |
| O=C(c1cnccn1)N1CC[C@H](N2CCN([C@H]3CCN(C(=O)c4cc(C(F)(F)F)cc(C(F)(F)F)c4)[C@H](Cc4ccc(Cl)c(Cl)c4)C3)CC2)C1 [Compound 323] | 10 nM | 1260 nM | 316 nM |
| O=C(c1cc(C(F)(F)F)cc(C(F)(F)F)c1)N1CC[C@H](N2CCN([C@H]3CCN(C(=O)n4ccnc4)C3)CC2)C[C@H]1Cc1ccc(Cl)c(Cl)c1 [Compound 324] | 6.31 nM | 200 nM | 398 nM |
| O=C(c1ccsc1)N1CC[C@H](N2CCN([C@H]3CCN(C(=O)c4cc(C(F)(F)F)cc(C(F)(F)F)c4)[C@H](Cc4ccc(Cl)c(Cl)c4)C3)CC2)C1 [Compound 325] | 15.8 nM | 398 nM | 631 nM |
| O=C(c1ccoc1)N1CC[C@H](N2CCN([C@H]3CCN(C(=O)c4cc(C(F)(F)F)cc(C(F)(F)F)c4)[C@H](Cc4ccc(Cl)c(Cl)c4)C3)CC2)C1 [Compound 326] | 15.8 nM | 501 nM | 501 nM |
| COc1ccc(S(=O)(=O)N2CCC(N3CCN([C@H]4CCN(C(=O)c5cc(C(F)(F)F)cc(C(F)(F)F)c5)[C@H](Cc5ccccc5)C4)CC3)C2)s1 (stereo partly drawn) [Compound 328] | 6.31 nM | 631 nM | 6310 nM |
| O=C(C(O)c1ccccc1Cl)N1CCC(N2CCN([C@H]3CCN(C(=O)c4cc(C(F)(F)F)cc(C(F)(F)F)c4)[C@H](Cc4ccccc4)C3)CC2)C1 (stereo partly drawn) [Compound 334] | 31.6 nM | 5010 nM | 7940 nM |
| O=C(c1ccsc1)N1CCC(N2CCN(C3CCN(C(=O)c4cc(C(F)(F)F)cc(C(F)(F)F)c4)C(Cc4cc(F)cc(F)c4)C3)CC2)C1 (stereo not drawn) [Compound 337] | 39.8 nM | 3160 nM | 1260 nM |
| O=C(C1CC1)N1CCC(N2CCN(C3CCN(C(=O)c4cc(C(F)(F)F)cc(C(F)(F)F)c4)C(Cc4cc(F)cc(F)c4)C3)CC2)C1 (stereo not drawn) [Compound 340] | 50.1 nM | 6310 nM | 6310 nM |
| O=C(c1cc(C(F)(F)F)cc(C(F)(F)F)c1)N1CCC(N2CCN(C3CCN(S(=O)(=O)c4cc(CCO)cs4)C3)CC2)CC1Cc1ccccc1 (stereo not drawn) [Compound 342] | 5.01 nM | 126 nM | 398 nM |
| COc1cccc(NC(=O)N2CCC(N3CCN(C4CCN(C(=O)c5cc(C(F)(F)F)cc(C(F)(F)F)c5)C(Cc5ccccc5)C4)CC3)C2)c1 (stereo not drawn) [Compound 343] | 31.6 nM | 3160 nM | 7940 nM |
| O=C(OCc1ccccc1C(=O)N1CCC(N2CCN([C@H]3CCN(C(=O)c4cc(C(F)(F)F)cc(C(F)(F)F)c4)[C@H](Cc4ccccc4)C3)CC2)C1)c1ccccc1 (stereo partly drawn) [Compound 346] | 63.1 nM | 1580 nM | 1260 nM |
| COc1cccc(S(=O)(=O)N2CCC(N3CCN([C@H]4CCN(C(=O)c5cc(C(F)(F)F)cc(C(F)(F)F)c5)[C@H](Cc5ccccc5)C4)CC3)C2)c1 (stereo partly drawn) [Compound 347] | 20 nM | 631 nM | 2510 nM |
| O=C(c1cc(C(F)(F)F)cc(C(F)(F)F)c1)N1CC[C@H](N2CCN(C3CCN(S(=O)(=O)c4ccc(CCO)s4)C3)CC2)C[C@H]1Cc1ccccc1 (stereo partly drawn) [Compound 351] | 10 nM | 251 nM | 1000 nM |
| O=C(c1cc(COCc2ccccc2)cs1)N1CCC(N2CCN([C@H]3CCN(C(=O)c4cc(C(F)(F)F)cc(C(F)(F)F)c4)[C@H](Cc4ccccc4)C3)CC2)C1 (stereo partly drawn) [Compound 352] | 63.1 nM | 6310 nM | 3160 nM |
| O=C(c1sccc1COCc1ccccc1)N1CCC(N2CCN([C@H]3CCN(C(=O)c4cc(C(F)(F)F)cc(C(F)(F)F)c4)[C@H](Cc4ccccc4)C3)CC2)C1 (stereo partly drawn) [Compound 353] | 25.1 nM | 3160 nM | 794 nM |
| COc1ccc(NC(=NC#N)N2CCC(N3CCN([C@H]4CCN(C(=O)c5cc(C(F)(F)F)cc(C(F)(F)F)c5)[C@H](Cc5ccccc5)C4)CC3)C2)cc1 (stereo partly drawn) [Compound 355] | 15.8 nM | 5010 nM | 6310 nM |
| O=C(C1CCCCC1)N1CCC(N2CCN(C3CCN(C(=O)c4cc(C(F)(F)F)cc(C(F)(F)F)c4)C(Cc4ccc(F)c(F)c4)C3)CC2)C1 (stereo not drawn) [Compound 358] | 12.6 nM | 3160 nM | 1580 nM |
| O=C(c1sccc1CCOCc1ccccc1)N1CCC(N2CCN([C@H]3CCN(C(=O)c4cc(C(F)(F)F)cc(C(F)(F)F)c4)[C@H](Cc4ccccc4)C3)CC2)C1 (stereo partly drawn) [Compound 361] | 79.4 nM | 1000 nM | 631 nM |
| O=C(c1cc(CCOCc2ccccc2)cs1)N1CCC(N2CCN([C@H]3CCN(C(=O)c4cc(C(F)(F)F)cc(C(F)(F)F)c4)[C@H](Cc4ccccc4)C3)CC2)C1 (stereo partly drawn) [Compound 362] | 126 nM | 2510 nM | 2510 nM |

More lines, now with the values ahead:

| IC50 [1] | IC50 [2] | IC50 [3] | SMILES |
| --- | --- | --- | --- |
| 31.6 nM | 5010 nM | 3160 nM | O=C(c1cc(C(F)(F)F)cc(C(F)(F)F)c1)N1CC[C@H](N2CCN(C3CCN(C(CO)c4cccs4)C3)CC2)C[C@H]1Cc1ccccc1 (stereo partly drawn) [Compound 319] |
| 12.6 nM | 3160 nM | 251 nM | O=C(c1cccs1)N1CC[C@@H](N2CCN([C@H]3CCN(C(=O)c4cc(C(F)(F)F)cc(C(F)(F)F)c4)[C@H](Cc4ccccc4)C3)CC2)C1 [Compound 321] |
| 7.94 nM | 3980 nM | 631 nM | O=C(c1cccs1)N1CC[C@H](N2CCN([C@H]3CCN(C(=O)c4cc(C(F)(F)F)cc(C(F)(F)F)c4)[C@H](Cc4ccccc4)C3)CC2)C1 [Compound 322] |
| 6.31 nM | 3980 nM | 2000 nM | O=C(c1ccccc1O)N1CCC(N2CCN([C@H]3CCN(C(=O)c4cc(C(F)(F)F)cc(C(F)(F)F)c4)[C@H](Cc4ccccc4)C3)CC2)C1 (stereo partly drawn) [Compound 327] |
| 5.01 nM | 1580 nM | 3160 nM | O=C(c1cccc(O)c1)N1CCC(N2CCN([C@H]3CCN(C(=O)c4cc(C(F)(F)F)cc(C(F)(F)F)c4)[C@H](Cc4ccccc4)C3)CC2)C1 (stereo partly drawn) [Compound 332] |
| 10 nM | 2000 nM | 3160 nM | O=C(c1ccc(O)cc1)N1CCC(N2CCN([C@H]3CCN(C(=O)c4cc(C(F)(F)F)cc(C(F)(F)F)c4)[C@H](Cc4ccccc4)C3)CC2)C1 (stereo partly drawn) [Compound 341] |
| 10 nM | 316 nM | 2000 nM | O=C(c1cc(C(F)(F)F)cc(C(F)(F)F)c1)N1CC[C@H](N2CCN(C3CCN(S(=O)(=O)c4cccc(O)c4)C3)CC2)C[C@H]1Cc1ccccc1 (stereo partly drawn) [Compound 348] |
| 31.6 nM | 2510 nM | 6310 nM | O=C(c1cc(C(F)(F)F)cc(C(F)(F)F)c1)N1CCC(N2CCN(C3CCN(C(CO)c4ccsc4)C3)CC2)CC1Cc1ccccc1 (stereo not drawn) [Compound 349] |
| 12.6 nM | 5010 nM | 5010 nM | COc1ccc(C(=O)N2CCC(N3CCN([C@H]4CCN(C(=O)c5cc(C(F)(F)F)cc(C(F)(F)F)c5)[C@H](Cc5ccccc5)C4)CC3)C2)s1 (stereo partly drawn) [Compound 350] |
| 12.6 nM | 2510 nM | 2000 nM | O=C(c1ccc(CCO)s1)N1CCC(N2CCN(C3CCN(C(=O)c4cc(C(F)(F)F)cc(C(F)(F)F)c4)C(Cc4ccccc4)C3)CC2)C1 (stereo not drawn) [Compound 359] |
| 10 nM | 3980 nM | 1000 nM | O=C(c1sccc1CO)N1CCC(N2CCN([C@H]3CCN(C(=O)c4cc(C(F)(F)F)cc(C(F)(F)F)c4)[C@H](Cc4ccccc4)C3)CC2)C1 (stereo partly drawn) [Compound 360] |
| 12.6 nM | 3980 nM | 1580 nM | O=C(c1cc(CCO)cs1)N1CCC(N2CCN([C@H]3CCN(C(=O)c4cc(C(F)(F)F)cc(C(F)(F)F)c4)[C@H](Cc4ccccc4)C3)CC2)C1 (stereo partly drawn) [Compound 363] |
